Assays:
[1] = system: MOLM-13 (acute myeloid leukemia, FLT3-ITD positive); experiment: Calcein AM cytotoxicity assay; type: cell-based; conditions: Homo sapiens, 72 h; MOLM-13; Calcein AM, three days; read-out: EC50 values (μM) MOLM-13
Procedure, shortened: (§1)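 Membrane-integrity cytotoxicity readout. Seeding, then next-day dosing at various concentrations (triplicates), then three days' incubation at 37° C in 5% CO2, then 1 h with Calcein AM (final 1 μg/ml) and green fluorescence measurement.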

[2] = system: U937 (monocytic leukemia, wt FLT3); experiment: Calcein AM cytotoxicity assay; type: cell-based; conditions: Homo sapiens, U-937, 72 h; U937; Calcein AM, three days; read-out: EC50 values (μM) U937
Procedure, shortened: as §1

MCF-7 = experiment: Calcein AM cytotoxicity assay; type: cell-based; conditions: Homo sapiens, MCF7, 72 h; MCF-7; Calcein AM, three days; read-out: EC50 values (μM) MCF-7
Procedure, shortened: as §1

[3] = system: THP-1 (acute myeloid leukemia, wt FLT3); experiment: Calcein AM cytotoxicity assay; type: cell-based; conditions: Homo sapiens, 72 h; THP-1; Calcein AM, three days; read-out: EC50 values (μM) THP-1
Procedure, shortened: as §1

[4] = system: MV4-11 (acute myeloid leukemia, FLT3-ITD positive); experiment: Calcein AM cytotoxicity assay; type: cell-based; conditions: Homo sapiens, 72 h; MV4-11; Calcein AM, three days after drug addition; read-out: EC50 values (μM) MV4-11
Procedure, shortened: as §1

K562 = experiment: Calcein AM cytotoxicity assay; type: cell-based; conditions: Homo sapiens, 72 h; K562; Calcein AM, three days; read-out: EC50 values (μM) K562
Procedure, shortened: as §1

[5] = system: EOL-1 (eosinophilic leukaemia, carrying the fusion FIP1L1-PDGFRA); experiment: Calcein AM cytotoxicity assay; type: cell-based; conditions: Homo sapiens, EOL1, 72 h; EOL-1; Calcein AM, three days; read-out: EC50 values (μM) EOL-1
Procedure, shortened: as §1

FLT3 WT = target: T1, FLT3 WT (Homo sapiens, UniProt P36888); experiment: Kinase inhibition assay with [γ-33P]ATP; type: biochemical; conditions: AGLT substrate, 1 μM ATP
T1 construct: purchased ProQinase GmbH
T1 sequence (P36888 27-993): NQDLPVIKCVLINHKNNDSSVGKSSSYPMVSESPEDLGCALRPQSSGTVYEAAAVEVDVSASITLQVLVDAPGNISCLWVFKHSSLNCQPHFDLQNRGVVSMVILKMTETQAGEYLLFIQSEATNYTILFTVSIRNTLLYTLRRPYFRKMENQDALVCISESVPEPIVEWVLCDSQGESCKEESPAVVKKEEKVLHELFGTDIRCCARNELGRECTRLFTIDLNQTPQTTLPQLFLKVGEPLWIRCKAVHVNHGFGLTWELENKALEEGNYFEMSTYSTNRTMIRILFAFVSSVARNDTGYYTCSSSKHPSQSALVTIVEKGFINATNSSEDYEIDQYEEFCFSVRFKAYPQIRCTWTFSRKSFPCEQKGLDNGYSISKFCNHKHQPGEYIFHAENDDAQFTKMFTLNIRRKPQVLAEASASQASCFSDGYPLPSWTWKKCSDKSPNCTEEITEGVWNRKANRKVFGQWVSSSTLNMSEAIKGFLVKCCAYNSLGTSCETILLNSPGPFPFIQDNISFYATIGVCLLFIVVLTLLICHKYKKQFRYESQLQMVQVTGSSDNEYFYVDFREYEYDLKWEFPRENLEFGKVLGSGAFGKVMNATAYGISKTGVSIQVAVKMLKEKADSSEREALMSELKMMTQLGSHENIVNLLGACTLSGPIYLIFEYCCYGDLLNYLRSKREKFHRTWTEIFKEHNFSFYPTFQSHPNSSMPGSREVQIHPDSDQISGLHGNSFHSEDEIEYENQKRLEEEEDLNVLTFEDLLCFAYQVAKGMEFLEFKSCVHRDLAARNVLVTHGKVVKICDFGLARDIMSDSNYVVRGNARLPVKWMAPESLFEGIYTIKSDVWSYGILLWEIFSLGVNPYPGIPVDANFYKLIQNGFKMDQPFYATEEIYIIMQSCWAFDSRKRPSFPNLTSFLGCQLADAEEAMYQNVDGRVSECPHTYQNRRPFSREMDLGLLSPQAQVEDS
Procedure, shortened: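 Radiometric [γ-33P]ATP assay in HEPES pH 7.5 with Mg2+/Mn2+: CDK1/Cyclin B (Sf9-expressed) and purchased CDK5/p35 with 1 mg/mL histone H1 at 15 and 0.15 μM ATP respectively; FLT3 WT and FLT3-ITD with AGLT substrate at 1 μM ATP. Reactions stopped with H3PO4, spotted onto phosphocellulose and washed.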

CDK2/Cyclin E = target: T2, CDK2/Cyclin E (Homo sapiens, UniProt P24941); experiment: Kinase inhibition assay with [γ-33P]ATP; type: biochemical; conditions: histone H1, 15 μM ATP; read-out: IC50 values (μM) CDK2
T2 construct: made in house; host or cells: Sf9 insect cells, baculoviral infection
Procedure, shortened: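 Human CDK2/Cyclin E, expressed in baculovirus-infected Sf9 insect cells and purified on a NiNTA column, was assayed with 1 mg/mL histone H1 substrate, 15 μM ATP plus 0.05 μCi [γ-33P]ATP and test compound in 10 μL of buffer (60 mM HEPES-NaOH pH 7.5, 3 mM MgCl2, 3 mM MnCl2, 3 μM Na-orthovanadate, 1.2 mM DTT, PEG20,000). Reactions were quenched with 5 μL 3% H3PO4, spotted onto P-81 phosphocellulose, washed and dried.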

| IC50 (FLT3 WT) [µM] | IC50 (CDK2/Cyclin E) [µM] | Structure (SMILES) | EC50 [1] [µM] | EC50 [2] [µM] | EC50 (MCF-7) [µM] | EC50 [3] [µM] | EC50 [4] [µM] | EC50 (K562) [µM] | EC50 [5] [µM] |
| --- | --- | --- | --- | --- | --- | --- | --- | --- | --- |
| 0.023 | 0.017 | NC1CCC(Nc2nc(Nc3ccc(N4CCOCC4)cc3)c3ncn(C4CCCC4)c3n2)CC1 (stereo not shown) [Compound 1] | 0.004 | 2.13 | 0.32 | 1.01 | 0.001 | 1.19 | 0.008 |
| 0.015 | 0.008 | NC1CCC(Nc2nc(Nc3ccc(CN4CCNCC4)cc3)c3ncn(C4CCCC4)c3n2)CC1 (stereo not shown) [Compound 2] | 0.015 | 1.8 | 0.52 | 2.28 | 0.01 | 1.57 | 0.023 |
| 0.021 | 0.004 | CN1CCN(C(=O)c2ccc(Nc3nc(NC4CCC(N)CC4)nc4c3ncn4C3CCCC3)cc2)CC1 (stereo not shown) [Compound 3] | 0.02 | 3.66 | 0.273 | 3.02 | 0.018 | 1.23 | 0.015 |
| 0.026 | 0.006 | CN1CC2(C1)CN(c1ccc(Nc3nc(NC4CCC(O)CC4)nc4c3ncn4C3CCCC3)cc1)C2 (stereo not shown) [Compound 7] | – | – | – | – | – | – | – |
| 0.014 | 0.004 | NCCNc1nc(Nc2ccc(CN3CCNCC3)cc2)c2ncn(C3CCCC3)c2n1 [Compound 14] | 0.025 | 1.45 | 1.52 | 1.86 | 0.083 | 1.56 | 0.054 |
| 0.019 | 0.002 | CN1CCN(C(=O)c2ccc(Nc3nc(NCCCCN)nc4c3ncn4C3CCCC3)cc2)CC1 [Compound 27] | 0.019 | 0.794 | 0.265 | 0.624 | 0.024 | 0.57 | 0.053 |
| 0.01 | 0.028 | NCCCCNc1nc(Nc2ccc(N3CC4(COC4)C3)nc2)c2ncn(C3CCCC3)c2n1 [Compound 28] | 0.004 | 0.605 | 0.925 | 0.514 | 0.001 | 1.05 | 0.013 |
| 0.011 | 0.016 | CN(C)CCNc1nc(Nc2ccc(CN3CCOCC3)nc2)c2ncn(C3CCCC3)c2n1 [Compound 172] | 0.017 | 1.48 | 0.43 | 1.52 | 0.003 | 1.16 | 0.014 |
| 0.09 | 0.04 | CN(C)CCCNc1nc(Nc2ccc(C(=O)N3CCOCC3)nc2)c2ncn(C3CCCC3)c2n1 [Compound 179] | 0.078 | – | 2.21 | > 4 | 0.013 | – | 0.225 |
| 0.021 | 0.031 | NC1CCC(Nc2nc(Nc3ccc(N4CCCC4)cc3)c3ncn(C4CCCC4)c3n2)CC1 (stereo not shown) [Compound 263] | 0.024 | 3.17 | 1.33 | 3.11 | 0.018 | 1.27 | 0.03 |
| 0.023 | 0.642 | NCCCCNc1nc(Nc2ccc(N3CCOCC3)cc2)c2ncn(C3CCCC3)c2n1 [Compound 265] | 0.016 | > 4 | 3.25 | > 4 | 0.017 | 3.74 | 0.039 |
| 0.013 | 0.586 | CCN1CCN(c2ccc(Nc3nc(NCCCCN)nc4c3ncn4C3CCCC3)cc2)CC1 [Compound 266] | 0.014 | 3.77 | 2.15 | 2.99 | 0.018 | 1.43 | 0.074 |
| 0.013 | 0.025 | NC1CCC(Nc2nc(Nc3ccc(N4CC5(COC5)C4)cc3)c3ncn(C4CCCC4)c3n2)CC1 (stereo not shown) [Compound 272] | 0.004 | 0.638 | 1.05 | 0.693 | 0.003 | 1.18 | 0.022 |

| Structure (SMILES) | IC50 (FLT3 WT) [µM] | IC50 (CDK2/Cyclin E) [µM] | EC50 [1] [µM] | EC50 [2] [µM] | EC50 (MCF-7) [µM] | EC50 [3] [µM] | EC50 [4] [µM] | EC50 (K562) [µM] | EC50 [5] [µM] |
| --- | --- | --- | --- | --- | --- | --- | --- | --- | --- |
| NC1CCC(Nc2nc(Nc3ccc(CN4CCOCC4)cc3)c3ncn(C4CCCC4)c3n2)CC1 (stereo not shown) [Compound 264] | 0.013 | 0.007 | – | – | – | – | – | – | – |
| NCCCCNc1nc(Nc2ccc(CN3CCOCC3)cc2)c2ncn(C3CCCC3)c2n1 [Compound 270] | 0.006 | 0.625 | 0.014 | > 4 | 2.1 | 1.24 | 0.029 | 1.81 | – |

Reference: patent publication US11028087B2, “2,6-disubstituted-9-cyclopentyl-9H-purines, use thereof as medicaments, and pharmaceutical compositions” (UNIVERZITA PALACKEHO V OLOMOUCI, priority 2017, dated 2021)
